Where “and” joins values, the source holds several entries; their conditions need not be identical. Equal entries are not always repeated.
Tests used:
[1] = test system: Cl^− transport, MDCK cells; assay: In vitro diuretic activity: Cl^− transport inhibition, Transwell chamber seeded with MDCK cells; format: cell-based, canine; settings: Canis lupus familiaris; 100 μmol/L, MDCK cells in Transwell; mean ± SD of three replicates; negative = promotion; read-out: Transport Inhibition Rate (%) Cl^−
Excerpt: (§1) The traditional methods for screening diuretic drugs are mostly in vivo experiments with mice, which have a long experimental cycle and are not suitable for screening massive compounds. As we know, the generation and excretion of urine involve two processes: glomerular filtration and tubular reabsorption. Reabsorption refers to the process in which the renal tubular epithelial cells transport water and certain solutes from the tubular fluid (urine) partially or entirely back into the bloodstream. Then, 99% of the water in the original urine filtered by the glomerulus is reabsorbed, and the transport of Na^+ and Cl^− plays an important role in this process. Thiazide and furosemide diuretics exert their diuretic effects by inhibiting the transport of Na^+ and Cl^−, which affects the tubular reabsorption of the original urine. Based on this principle, we established a new type of cell screening model for diuretic active drugs. Madin–Darby canine kidney (MDCK) cells were inoculated into a Transwell chamber to simulate the renal tubules. This cell model could transport and absorb external NaCl, simulating the reabsorption phenomenon. […] The effectiveness of this model was confirmed by the validation of hydrochlorothiazide, which is a commercially available diuretic drug and could inhibit the transport of Na^+ and Cl^− in renal tubules.
(§2) Generally, the transport of Na^+ and Cl^− plays an important role in glomerular filtration and tubular reabsorption. […] For example, inhibition rates of transport of 6a and 6c were over 30%, and had better inhibitory ability than barbatic acid. […] When ethyl, propyl, and benzyl were substituted on R^1, the introduction of any group could not enhance the inhibitory activity of barbatic acid, such as 6h–u and 6j′–6p′.
(§3) Log-phase MDCK cells were seeded in the upper chambers of Transwell plates (4 × 10^4 cells/well), and 800 µL of complete culture medium was added to the lower chambers. After 24 h of incubation at 37 °C, the electrical resistance of the upper chamber cells was measured one by one (R = (Rcell − Rblank) × 0.04π). When the electrical resistance of the upper chamber cells reached ≥300 Ω cm^2, the upper chamber medium was removed and replaced with the drug solution. The blank group (given normal saline), the experimental group (1, 6a–6p′, 100 μmol/L), and the hydrochlorothiazide group (100 μmol/L) were set, and each well was treated with 100 µL of the corresponding solution. The cells were then further incubated for 24 h. After that, the upper and lower chamber fluids were removed, and 200 µL of NaCl solution (15 mg/mL) was added to the upper chamber, while 800 µL of DMEM was added to the lower chamber for continued incubation. At 0.5, 1, 2, and 3 h, 50 µL of the lower chamber fluid was taken and the OD values were measured using Na^+ and Cl^− detection kits. The transport inhibition rate (%) was calculated as follows: transport inhibition rate (%) = (ODblank − ODexperimental)/ODblank × 100%.

[2] = test system: Na^+ transport, MDCK cells; assay: In vitro diuretic activity: Na^+ transport inhibition, Transwell chamber seeded with MDCK cells; format: cell-based, canine; settings: 100 μmol/L, MDCK cells in Transwell, mean ± SD of three replicates, negative = promotion; for inhibition at 100 µM: Canis lupus familiaris, MDCK, read-out: Transport Inhibition Rate (%) Na^+
Excerpt: as §1, §2, §3

MDCK cells = assay: MTT cytotoxicity assay on MDCK cells; format: cell-based, canine; settings: Canis lupus familiaris, 100 μmol/L, 24 h, mean ± SD of three replicates, read-out: Growth Inhibition Rate (%)
Experimental: First, we used the MTT method to perform cytotoxicity of barbatic acid derivatives (1, 6a–6p′) on MDCK cells at the concentration of 100 μmol/L, and the results are shown in Table 1.
The MTT assay was used to evaluate the cytotoxicity of the target compounds on DMCK cells. Logarithmic-growth-phase DMCK cells were seeded in a 96-well plate (10^4 cells/well) and incubated in a cell culture incubator for 24 h. The culture medium was then removed and replaced with a drug-containing medium for the treatment groups (1, 6a–6p′, 100 μmol/L), normal saline for the control group, or hydrochlorothiazide (100 μmol/L) for the positive control group. Each well was treated with 100 µL of the respective solution and incubated for an additional 24 h. The culture medium was then removed and replaced with a DMEM solution containing 20 µL of MTT (5 mg/mL). After incubating for 4 h, the liquid in each well was removed and replaced with 150 µL of DMSO, which was shaken for 10 min to ensure thorough mixing. The absorbance at 490 nm was measured to determine the optical density (OD) of each well. Cell growth inhibition rate (%) = (ODBlank − ODExperimental)/ODBlank × 100%.

[3] = test system: Ca^2+ transport, MDCK cells; assay: In vitro litholytic activity: Ca^2+ transport inhibition, Transwell chamber with MDCK cells; format: cell-based, canine; settings: Canis lupus familiaris, 100 μmol/L, mean ± SD of three replicates, read-out: Transport Inhibition Rate (%) Ca^2+
Experimental: (§4) On the other hand, all compounds had little inhibitory effect on Ca^2+ transport. The structure–activity relationships (SARs) were also observed. […] On the other hand, the introduction of the benzyl group to the R^1 or R^2 of barbatic acid could not lead to more promising compounds, such as 6a, 6n, 6u, 6b′, and 6i′–p′.
(§5) Logarithmic-phase DMCK cells were inoculated in the upper chamber of a Transwell plate (4 × 10^4 cells/well). Then, 800 µL of complete culture medium was added to the lower chamber, and the cells were incubated for 24 h until they adhered to the wall. The resistance value of the upper chamber cells was measured one by one at 37 °C (R = (Rcell − Rblank) × 0.04π). When the resistance value of the upper chamber cells was ≥300 Ω cm^2, the upper chamber liquid was discarded for drug administration. A control group (given physiological saline) and an experimental group (1, 6a–6p′, 100 μmol/L) were set up, and 100 µL of each drug was administered per well, followed by continued incubation for 24 h. Then, the upper and lower chamber liquids were discarded, and 200 µL of CaC2O4 (30 mmol/L) solution was added to the upper chamber, and 800 µL of PBS solution was added to the lower chamber for continued incubation. At 0.5, 1, 2, and 3 h, 50 µL of the lower chamber liquid was taken and then tested using the Ca^2+ and C2O4^2− detection kits and the following detection methods. The transport inhibition rate (%) = (ODblank − ODexperimental)/ODblank × 100%.

[4] = test system: C2O4^2− transport, MDCK cells; assay: In vitro litholytic activity: C2O4^2− transport inhibition, Transwell chamber with MDCK cells; format: cell-based, canine; settings: Canis lupus familiaris; 100 μmol/L, MDCK cells in Transwell; mean ± SD of three replicates; read-out: Transport Inhibition Rate (%) C2O4^2−
Experimental: as §4, §5

| SMILES | inhibition at 100 µM [1] | melting point | inhibition at 100 µM [2] | inhibition at 100 µM (MDCK cells) | inhibition at 100 µM [3] | inhibition at 100 µM [4] | Transport Inhibition Rate (%) Na^+ [2] |
| --- | --- | --- | --- | --- | --- | --- | --- |
| CCOc1cc(C)c(C(=O)Oc2cc(C)c(C(=O)OC(C)C)c(O)c2C)c(O)c1C [Compound 6k, 3-hydroxy-4-(isopropoxycarbonyl)-2,5-dimethylphenyl 4-ethoxy-2-hydroxy-3,6-dimethylbenzoate] | -7.1 ± 1% | 125 to 128 °C | -62.5 ± 1.95% | < 0% | 1.2 ± 0.13% | -5.12 ± 1.75% | – |
| CCOc1cc(C)c(C(=O)Oc2cc(C)c(C(=O)OC)c(O)c2C)c(O)c1C [Compound 6h, 3-hydroxy-4-(methoxycarbonyl)-2,5-dimethylphenyl 4-ethoxy-2-hydroxy-3,6-dimethylbenzoate] | 2.19 ± 0.55% | 152 to 155 °C | -7.67 ± 1% | < 0% | -3.85 ± 0.19% | -4.23 ± 4.77% | – |
| COC(=O)c1c(C)cc(OC(=O)c2c(C)cc(OC(C)C)c(C)c2O)c(C)c1O [Compound 6v, 3-hydroxy-4-(methoxycarbonyl)-2,5-dimethylphenyl 2-hydroxy-4-isopropoxy-3,6-dimethylbenzoate] | -13.55 ± 0.1% | 60 to 63 °C | -9.43 ± 0.75% | < 0% | 0.19 ± 0.29% | -17.9 ± 1.35% | – |
| CCOC(=O)c1c(C)cc(OC(=O)c2c(C)cc(OCc3ccccc3)c(C)c2O)c(C)c1O [6k′, 4-(ethoxycarbonyl)-3-hydroxy-2,5-dimethylphenyl 4-(benzyloxy)-2-hydroxy-3,6-dimethylbenzoate] | -19.6 ± 2.4% | 123 to 126 °C | 14.1 ± 3.2% | 1.45 ± 0.1% | 1.34 ± 0.1% | 10.3 ± 2.11% | – |
| C=CCOC(=O)c1c(C)cc(OC(=O)c2c(C)cc(OC(C)C)c(C)c2O)c(C)c1O [Compound 6z, allyl 2-hydroxy-4-(2-hydroxy-4-isopropoxy-3,6-dimethylbenzoyloxy)-3,6-dimethylbenzoate] | -32.6 ± 3.1% | 111 to 114 °C | -22.7 ± 1.05% | 2.47 ± 0.5% | -2.56 ± 0.17% | 0.23 ± 2.16% | – |
| COc1cc(C)c(C(=O)Oc2cc(C)c(C(=O)OCC#N)c(O)c2C)c(O)c1C [Compound 6g] | -27.7 ± 1% | 184 to 187 °C | 12.1 ± 1.3% | 0.12 ± 0.1% | -8.61 ± 0.19% | -12.6 ± 2.88% | – |
| COc1cc(C)c(C(=O)Oc2cc(C)c(C(=O)OC(C)C)c(O)c2C)c(O)c1C [Compound 6e, 3-hydroxy-4-(isopropoxycarbonyl)-2,5-dimethylphenyl 2-hydroxy-4-methoxy-3,6-dimethylbenzoate] | -3.13 ± 0.65% | 135 to 138 °C | -0.88 ± 4.35% | < 0% | -3.66 ± 0.27% | -2.05 ± 3% | – |
| CCOC(=O)c1c(C)cc(OC(=O)c2c(C)cc(OCC)c(C)c2O)c(C)c1O [Compound 6i, 4-(ethoxycarbonyl)-3-hydroxy-2,5-dimethylphenyl 4-ethoxy-2-hydroxy-3,6-dimethylbenzoate] | -2.13 ± 1.9% | 187 to 190 °C | 5.2 ± 3.6% | < 0% | 1.71 ± 0.13% | 54 ± 10.4% | – |
| CCCOc1cc(C)c(C(=O)Oc2cc(C)c(C(=O)OCC)c(O)c2C)c(O)c1C [Compound 6p, 4-(ethoxycarbonyl)-3-hydroxy-2,5-dimethylphenyl 2-hydroxy-3,6-dimethyl-4-propoxybenzoate] | -18.38 ± 0.15% | 160 to 163 °C | -12.2 ± 0.45% | < 0% | 4.79 ± 0.46% | 4.29 ± 0.24% | – |
| CCOC(=O)c1c(C)cc(OC(=O)c2c(C)cc(OC(C)C)c(C)c2O)c(C)c1O [Compound 6w, 4-(ethoxycarbonyl)-3-hydroxy-2,5-dimethylphenyl 2-hydroxy-4-isopropoxy-3,6-dimethylbenzoate] | -80.4 ± 1.2% | 62 to 65 °C | > 30% | 0.7 ± 0.3% | 1.55 ± 0.11% | 19 ± 2.64% | 33.11 ± 0.55% |
| COC(=O)c1c(C)cc(OC(=O)c2c(C)cc(OC)c(C)c2O)c(C)c1O [Compound 6b, 3-hydroxy-4-(methoxycarbonyl)-2,5-dimethylphenyl 2-hydroxy-4-methoxy-3,6-dimethylbenzoate] | 5.71% | 177 to 180 °C | – | < 0% | -5.14 ± 0.31% | -4.25 ± 1.08% | less than 10% and −9.31 ± 7.15% |
| CCCOC(=O)c1c(C)cc(OC(=O)c2c(C)cc(OCCC)c(C)c2O)c(C)c1O [Compound 6q, 3-hydroxy-2,5-dimethyl-4-(propoxycarbonyl)phenyl 2-hydroxy-3,6-dimethyl-4-propoxybenzoate] | 11.6 ± 2.2% | 126 to 130 °C | 9.39 ± 0.25% | < 0% | 4.61 ± 0.32% | -26 ± 4.17% | – |
| CCCOC(=O)c1c(C)cc(OC(=O)c2c(C)cc(OC)c(C)c2O)c(C)c1O [Compound 6d, 3-hydroxy-2,5-dimethyl-4-(propoxycarbonyl)phenyl 2-hydroxy-4-methoxy-3,6-dimethylbenzoate] | -9.21 ± 0.45% | 146 to 149 °C | 8.04 ± 0.4% | 3.04 ± 0.3% | -9.93 ± 0.19% | -6.69 ± 8.67% | – |

Source: paper PMC10222548, “Semisynthesis, Biological Evaluation and Molecular Docking Studies of Barbatic Acid Derivatives as Novel Diuretic Candidates” (Molecules, 2023)
